The source of these data is patent US10864210B2, “Composition and combined medication method for treating enterovirus infection” (priority 2016, dated 2020).

Holding throughout (assay type): cell-based, Enterovirus 71
Assay [1] concerns EV71. Kind of assay: Evaluation experiment for compounds: inhibition of EV71-induced CPE in RD cells (CellTiter-Glo). Conditions: single compound, 2-fold dilutions. The method, then: Itraconazole purchased from Sigma-Aldrich is dissolved in DMSO to a final concentration of 10 mM; suramin purchased from Bayer is dissolved in a medium containing 2% FBS to a final concentration of 50 mM; favipiravir purchased from Chembest is dissolved in DMSO to a final concentration of 400 mM; rupintrivir purchased from Santa Cruz is dissolved in DMSO to a final concentration of 2 mM; and GW5074 purchased from Sigma is dissolved in DMSO to a final concentration of 10 mM. To evaluate the inhibition of EV71-induced CPE activity by five compounds, the inventors perform dose dependent experiments.
The raw data are input into an Excel sheet to calculate the signal-to-background ratio (S/B), the signal-to-noise ratio (S/N), Z factor, and the inhibition rate of the test compound against the virus. […] The antiviral activity of the compound CPE inhibition rate=(μcpd−μv)/(μc−μv)×100%, wherein μcpd represents the average signal intensity of the test compound; and the effect of the compound on the cell, cell survival rate=μcpd/μc×100%. The half maximum effect concentration (EC50) is a concentration that causes a 50% maximum effect. The half-cytotoxic concentration (CC50) refers to a concentration of the medicament that causes 50% cytotoxicity, which is expressed in this experiment as a 50% reduction in the fluorescence intensity of the experimental group compared with the control group.
(A) 2-fold dilution of itraconazole, rupintrivir, favipiravir, suramin, and GW5074 were separately added to RD cells, and virus or medium was added and cultured for 96 hours. The cell viability was measured by CellTiter-Glo kit. The inhibitory effects of […] compounds on EV71 and the toxic effects on cells were examined. (B) Virus and 2-fold dilution of itraconazole, rupintrivir, favipiravir, suramin, and GW5074 were separately added into RD cells. After 48 hours of culture, the supernatant was collected and the viral titer was determined by TCID50 method. The results were processed using Graphpad Prism5. The data in the figure were obtained from two independent parallel experiments, and the error bars represent the standard deviation of the two parallel experiments.
In general terms: Cellular ATP, detected with luciferase, serves as a proxy for viable cell number.

For assay [2], the system named is EV71 containing 3D protein mutation. In words: Mutant virus resistance experiment based on cytopathic effect in Vero cells. The conditions noted are these: CPE-based. The protocol:
To determine the resistance of the selected mutant virus and recombinant virus to the compound, the inventors conduct experiments based on cytopathic effects and viral titer reduction experiments. […] EV71 G082 strain is served as a control.
The supernatant from the 16th passage culture was collected and sequenced. EV71 containing 3D protein mutation was constructed by reverse genetics system. The viral titer was determined by plaque formation assay, the virus resistance to favipiravir was detected by viral titer reduction experiment. The experimental method was the same as the compound verification experiment. (B) The effects of itraconazole, rupintrivir, suramin and GW5074 on a virus containing 3D protein mutation were determined using an experiment based on cytopathic effect. The results were processed using Graphpad Prism5. The data in the figure were obtained from two independent parallel experiments, and the error bars represent the standard deviation of the two parallel experiments.

Assay [3] deals with EV71. In words: Viral titer reduction experiment (single compound). The method, then: (§1) RD cells are seeded in a 12-well plate with 3×10^5 cells/well, cultured overnight at 37° C. for 24 hours. Then EV71 virus solution with MOI=0.1 and 2-fold dilution of itraconazole, rupintrivir, favipiravir, suramin and GW5074 are added and cultured at 37° C. for 48 h. The supernatant is collected, frozen in a −80° C. refrigerator, and then determined for viral titer. To determine the resistance of the passaged virus to favipiravir, the inventors inoculate Vero cells in a 12-well plate, 3×10^5 cells/well and culture overnight at 37° C. After 24 hours, EV71 virus solution with MOI=0.1 is added and 300 μM and 600 μM favipiravir are separately added. After cultured at 37° C. for 48 hours, the supernatant is collected and frozen in a −80° C. refrigerator, and then the viral titer is measured.
EV71, itraconazole, and 0.5 μM or 1 μM of rupintrivir were simultaneously added to Vero cells, the virus was subcultured, and the supernatant was collected.

For assay [4], the system named is EV71 having amino acid residue mutation at position 121 in the 3D protein. Kind of assay: Favipiravir resistance screening and viral titer reduction experiment in Vero cells. Conditions: viral titer reduction. The method, then:
as §1
The present inventors conduct a passage experiment to screen a favipiravir resistant strain. 3×10^5 Vero cells are seeded in a 12-well plate, cultured overnight at 37° C. […] After 16 continuous passages, the titer of the virus in the supernatant, the resistance to the compound, and sequencing are determined. […]
The supernatant from the 16th passage culture was collected and sequenced. […] The viral titer was determined by plaque formation assay, the virus resistance to favipiravir was detected by viral titer reduction experiment. […]

On to `CCOC(=O)/C=C/[C@H](C[C@@H]1CCNC1=O)NC(=O)[C@@H](CC(=O)[C@@H](NC(=O)c1cc(C)on1)C(C)C)Cc1ccc(F)cc1` [rupintrivir], for which the “inhibition of EV71 infection of cells” value in assay [1] is listed as “effective in inhibiting EV71 infection of cells in a dose-dependent manner”. In addition, in assay [2], the “cross-resistance of favipiravir-resistant mutant virus compared with wild type virus (G082)” value is “no cross-resistance was found”.
As to `CCC(C)n1ncn(-c2ccc(N3CCN(c4ccc(OCC5COC(Cn6cncn6)(c6ccc(Cl)cc6Cl)O5)cc4)CC3)cc2)c1=O` (centres unmarked) [itraconazole], the “removal of viruses in the cell culture by single compound” value in assay [3] is reported as “could not remove all the viruses in the cell culture”. Moreover, the “inhibition of EV71 infection of cells” value in assay [1] is “effective in inhibiting EV71 infection of cells in a dose-dependent manner”. In assay [2], the “cross-resistance of favipiravir-resistant mutant virus compared with wild type virus (G082)” value is “no cross-resistance was found”.
In the case of `Cc1ccc(C(=O)Nc2ccc(S(=O)(=O)O)c3cc(S(=O)(=O)O)cc(S(=O)(=O)O)c23)cc1NC(=O)c1cccc(NC(=O)Nc2cccc(C(=O)Nc3cc(C(=O)Nc4ccc(S(=O)(=O)O)c5cc(S(=O)(=O)O)cc(S(=O)(=O)O)c45)ccc3C)c2)c1` [suramin], the “inhibition of EV71 infection of cells” value in assay [1] was “effective in inhibiting EV71 infection of cells in a dose-dependent manner”. Besides, the “cross-resistance of favipiravir-resistant mutant virus compared with wild type virus (G082)” value in assay [2] was “no cross-resistance was found”.
On to `NC(=O)c1nc(F)cnc1O` [favipiravir], for which the “resistance of EV71 with position 121 3D protein mutation to the compound” value in assay [4] is on record as “resistant”. Besides, in assay [1], the “inhibition of EV71 infection of cells” value is “effective in inhibiting EV71 infection of cells in a dose-dependent manner”.
Consider `O=C1Nc2ccc(I)cc2/C1=C/c1cc(Br)c(O)c(Br)c1` [GW5074], for which the “inhibition of EV71 infection of cells” value in assay [1] is listed as “effective in inhibiting EV71 infection of cells in a dose-dependent manner”. Further, in assay [2], the “cross-resistance of favipiravir-resistant mutant virus compared with wild type virus (G082)” value was “no cross-resistance was found”.
